This is an account of results in patent US20090042878A1, “THIENOPYRIMIDYLAMINES AS MODULATORS OF THE EP2 RECEPTOR” (priority 2007, published 2009).

The structures appear in SMILES notation.

The test system of one assay is cumulus-oocyte complexes. The assay can be described thus: cumulus expansion assay in vitro. It counts as cell-based, mice. Conditions: competing with natural EP2 receptor agonist PGE2. On the procedure:
Folliculogenesis is induced in immature female mice at an age of 14-18 days by a single dose (intraperitoneal) of 10 I.U. of PMSG (Pregnant Mare Serum Gonadotropin; Sigma G-4877, Lot 68H0909). 47-50 hours after the injection, the ovaries are removed and the cumulus-oocyte complexes are removed. The cumulus complex is not yet expanded at this stage.
The cumulus-oocyte complexes are then incubated with prostaglandin E2 (PGE2) (1 μM), vehicle control (ethanol) or test substances for 20-24 hours. Medium: alpha-MEM medium with 0.1 mM IBMX, pyruvates (0.23 mM) glutamines (2 mM), pen/strep 100 IU/ml pen. and 100 μg/ml strep. and HSA (8 mg/ml). Cumulus expansion is then established through the division into four stages (according to Vanderhyden et al. Dev Biol. 1990 August; 140(2):307-317).

Assay [1] deals with T1, human prostaglandin E2 (subtype EP2) receptor (Homo sapiens, UniProt P43116).
T1 construct: host or cells: cells in a cell culture plate
T1 sequence (P43116 whole entry): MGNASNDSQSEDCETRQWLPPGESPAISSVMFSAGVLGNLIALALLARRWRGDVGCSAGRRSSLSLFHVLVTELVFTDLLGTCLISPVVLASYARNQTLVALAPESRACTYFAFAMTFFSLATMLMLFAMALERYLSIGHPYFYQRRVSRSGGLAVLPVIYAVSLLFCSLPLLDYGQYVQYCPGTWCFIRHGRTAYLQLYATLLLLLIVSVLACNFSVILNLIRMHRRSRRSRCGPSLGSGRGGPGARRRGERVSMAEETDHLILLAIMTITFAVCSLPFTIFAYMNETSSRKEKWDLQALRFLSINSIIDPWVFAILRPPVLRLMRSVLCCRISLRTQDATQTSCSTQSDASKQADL
Briefly: cAMP antagonism test (HTRF cAMP detection, PGE2 stimulation). Conditions: in presence of PGE2. The assay is classed as cell-based. On the procedure: (§1) The binding of PGE2 to the EP2 subtype of the human PGE2 receptor induces activation of membrane-associated adenylate cyclases and leads to the formation of cAMP. In the presence of the phosphodiesterase inhibitor IBMX, cAMP which has accumulated due to this stimulation and been released by cell lysis is employed in a competitive detection method. In this assay, the cAMP in the lysate competes with cAMP-XL665 for binding of an Eu cryptate-labelled anti-cAMP antibody.
(§2) The two signals are measured in a suitable measuring instrument with a time lag, i.e. after the background fluorescence has declined.
(§3) The substance solutions (0.75 μl) introduced into an assay plate and 30% DMSO are dissolved in 16 μl of a KRSB+IBMX stimulation solution (1× Krebs-Ringer Bicarbonate Buffer; Sigma-Aldrich #K-4002; including 750 μM 3-isobutyl-1-methylxanthine Sigma-Aldrich #I-7018), and then 15 μl thereof are transferred into a media-free cell culture plate which has been washed with KRSB shortly beforehand.
After preincubation at room temperature (RT) for 30 minutes, 5 μl of a 4×PGE2 solution (11 nM) are added, and incubation is carried out in the presence of the agonist at RT for a further 60 min (volume: ˜20 μl) before the reaction is then stopped by adding 5 μl of lysis buffer and incubated at RT for a further 20 min (volume: ˜25 μl). The cell lysate is then transferred into a measuring plate and measured in accordance with the manufacturer's information (cyclic AMP kit Cisbio International #62AMPPEC).
(In general: Time-resolved FRET reads energy transfer from a long-lived donor to a nearby acceptor.)

In assay [2] the target is T1, human prostaglandin E2 (subtype EP2) receptor. The assay can be described thus: cellular agonism test (cAMP). The assay is classed as cell-based. On the procedure:
as §1, §2, §3
After incubation at room temperature (RT; volume: ˜15 μl) for 60 minutes, the reaction is then stopped by adding 5 μl of lysis buffer and incubated at RT for a further 20 min (volume: ˜20 μl). The cell lysate is then transferred into a measuring plate and measured in accordance with the manufacturer's instructions (cyclic AMP kit Cisbio International #62AMPPEC).

Turning to `CC(C)Oc1ccc2c(=O)c3cc(C(=O)O)ccc3oc2c1` [AH 6809, reference compound], the “suppression of cumulus expansion” value in the assay with cumulus-oocyte complexes was “approx. 30%”.
In the case of `Oc1ccc(CCNc2ncnc3cc(-c4ccccc4)sc23)cc1` [Example 9, 4-[2-(6-Phenylthieno[3,2-d]pyrimidin-4-ylamino)ethyl]phenol], the “suppression of cumulus expansion” value in the assay with cumulus-oocyte complexes (10 μM) is recorded as 45%.
For the compound `c1cnc2ccc(-c3cc4ncnc(NCc5ccc6c(c5)OCO6)c4s3)cc2c1` [Example 57, Benzo[1,3]dioxol-5-ylmethyl-(6-quinolin-6-yl-thieno[3,2-d]pyrimidin-4-yl)amine], the IC50 in assay [1] was 0.61 µM.
With `CC(=O)Nc1cccc(-c2cc3ncnc(NCc4ccc5c(c4)OCO5)c3s2)c1` [Example 69, N-(3-{4-[(Benzo[1,3]dioxol-5-ylmethyl)amino]thieno[3,2-d]pyrimidin-6-yl}phenyl)acetamide], the IC50 in assay [1] amounted to 0.46 µM. In addition, the “effect in the cellular agonism test” value in assay [2] is listed as “no inhibition”.
Take `COc1ccc(CNc2ncnc3cc(-c4cccc(NC(C)=O)c4)sc23)cc1` [Example 90, N-{3-[4-(4-Methoxybenzylamino)thieno[3,2-d]pyrimidin-6-yl]phenyl}acetamide]: in assay [1], the IC50 is 0.31 µM.

In general, IC50 refers to the point on the concentration scale where inhibition reaches its midpoint.
